Key:
Aβ42 oligomers = biological target: T1, Aβ42 oligomers (Homo sapiens, UniProt P05067); assay: fluorescence titration, one-site binding regression; settings: read-out: Aβ oligomers / Kd
T1 construct: gene APP; commercial Abeta(1-42) peptide, cut from APP precursor; soluble oligomers prepared via HFIP/water, stirred 24-48 h at ~22 °C, confirmed by TEM
Excerpt: fluorescence titration, one-site binding regression on Aβ42 oligomers

Aβ42 monomers = biological target: T2, Aβ42 monomers (Homo sapiens, UniProt P05067); assay: as above; settings: read-out: Aβ monomers / Kd
T2 construct: gene APP; commercial Abeta(1-42) peptide (Nanjing Peptide Biotech), cut from APP precursor; monomer stock in hexafluoroisopropanol
Excerpt: fluorescence titration, one-site binding regression on Aβ42 monomers

T1 sequence (P05067 672-713): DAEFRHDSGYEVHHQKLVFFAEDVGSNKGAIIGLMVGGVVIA
T2 sequence (P05067 672-713): as above

`CN(C)c1ccc2cc(/C=C/C3=CC(/C=C/C=C4N(C)c5ccccc5C4(C)C)=[O+][B-](F)(F)O3)ccc2c1` [compound 7, probe 7] gave a Kd (Aβ42 oligomers) of 167 ± 19.9 nM and a Kd (Aβ42 monomers) of 64.2 ± 5.38 nM.
